US6482609B1, “Isolated human EDG-4 receptor and polynucletide encoding said receptor” (priority 1997, dated 2002)
Where two headings read alike, the source gives them in different places.

Columns and labels:
[1] = biological target: human EDG-4 (Homo sapiens, UniProt O95136); assay: SRE luciferase reporter in 293-EBNA cells, human EDG-4; type: cell-based; settings: for EC50: 293-EBNA expressing human EDG-4, luciferase after 6 hr, pcDNA3 response subtracted; for Agonist character at EDG-4: conclusion from the reporter assay of Table 2; for Rank (EMax): rank of efficacy among compounds tested
Method: NE-κB activates gene expression by binding to specific DNA sequences found in the promoters of genes regulated by this inflammation-related transcription factor. […] The SRE reporter was identical to the NF-κB reporter, except that the NF-κB binding sites were replaced with 2 SRE sites. The new reporter was called 2XSREtk-p4Luc-zeo.
The protocol described in Example 11 for Assay 1 was followed except for the following changes:
2) SRE Cotransfection: 0.5 μg of 2XSREtk-p4Luc-zeo reporter DNA and 3.5 μg pcDNA3, EDG-1, EDG-3 (pC3-hE3HP2, different from the clone used in Assay 2 of Example 11) or the newly cloned human EDG-4 (pC3-hedg4#36); NF-κB Cotransfection: 2 μg 6XNFκBtk-p4Luc-zeo reporter DNA and 2.0 μg pcDNA3, EDG-1, EDG-3 (pC3-hE3HP2), or EDG-4 (pC3-hedg4#36). Expression plasmid and reporter plasmid DNA samples were combined and diluted in 750 μl of DMEM/F12 (serum free media) and 20 μl Plus Reagent (Lipofectamine Plus Kit, Life Technologies Cat. 10964-013), and incubated at room temperature for 15 min.
1) Media was removed and cells treated with compounds diluted in DMEM/F12 media.
2) The cells were treated for 6 hours.
3) Luciferase assay was performed.
Transfection was accomplished using the Lipofectamine Plus kit (Life Technologies, Cat. 10964-013), using the manufacturer's recommended conditions.
(§1) Transfection of EDG-4, expression, pretreatment and treatment of 293-EBNA cells expressing recombinant human EDG-4 was carried out essentially as described in “Example 11. […] Results were tabulated in Microsoft Excel, and analyzed with GraphPad Prism software. […] The luciferase response was expressed as fold response, after subtracting any endogenous response in pcDNA3-transfected cells at a given concentration of compound.

[2] = test system: 293-EBNA cells expressing recombinant human EDG-4; assay: Cytotoxicity seen in the EDG-4 agonist reporter assay (293-EBNA cells); type: cell-based
Method: as §1

[3] = biological target: rat edg4 (Rattus norvegicus, UniProt P47752); assay: NF-κB-tk-p4Luc luciferase reporter in 293-EBNA cells, rat EDG-4; type: cell-based; parameters: expressed in transfected cells; host or cells: 293-EBNA; settings: pC3-redg4, Assay #1, 24 hrs
Method: Monolayer Transient Transfection Protocol for 293-EBNA
1) 150 mm plates of 293-EBNA obtained from Invitrogen (Cat. R620-07) with a confluency of ˜80% were used for transfection.
2) 6.6 μg NF-κB-tk-p4Luc reporter DNA and 6.6 μg of pC3-redg4 (expressing rat EDG-4), or pcDNA3 DNA was diluted in 500 μl OPTI-MEM (Gibco; Cat. 31985-062)
3) 96.8 μl Lipofectamine (Gibco; Cat. 18324-020) was diluted in 500 μl of OPTI-MEM.
6) 6 ml OPTI-MEM was added to each transfection tube and this was added to a plate of 293-EBNA cells. The plates were left for 4 hrs at 37° C. in a 5% CO2 incubator.
2) 0.02×10^6 cells were plated per well of a 96-well Blackview plate coated with polyD-lysine. No cells were plated in the outside wells of the 96well plate. Two 96-well plates were seeded for each transfection.
1) Cells were washed with PBS and 140 μl serum-free media (SFM) added to each well. Plates were incubated in 37° C. incubator for 6 hrs.
2) After 6 hrs, media was removed and cells treated with compounds diluted in 0.5% FBS media (140 μl added to each well).
3) Cells were treated for 24 hrs.
1) Luclite kit (Packard; Cat. 6016911) was used for luciferase assay. All reagents were brought to room temperature before use.
3) 50 μl 0.5M HEPES pH 7.8 buffer (1 mM MgCl2, 1 mM CaCl2) was added to all wells of 96-well plate. Black adhesive backing (Polyfitronics) was aligned to the bottom of the viewplate.
4) Luclite substrate was made up by adding 10 ml substrate diluent to 1 vial lyophilized substrate. Reconstituted substrate was kept under a dark container. 50 μl substrate was added to each well.
7) After incubation, plates were counted in a 12-detector Packard Top Count on a program without dark delay.
Transient Transfection Protocol for 293-EBNA
The above protocol for assay 1 was followed except for the following changes:
2) 3 μg NFκB-tk-p4Luc reporter DNA and 3 μg pC3-hedg1, pC3-hedg3, pC3-redg4, pC3-hedg5 or pcDNA3 DNA was diluted in 240 μl OPTI-MEM (Gibco; Cat. 31985-062)
1) 0.01×10^6 cells were plated per well of a 96-well Blackview plate coated with polyD-lysine. No cells were plated in the outside wells of the 96-well plate.

[4] = test system: HeLa cells; assay: IL-8 ELISA on supernatants of treated HeLa cells; type: cell-based, human; settings: for Inhibition of IL-8 response to S1P by antioxidants: NDGA 10 or 40 μM, NAC 30 mM
Method: Procedure #1 For HeLa Cells
Cells: HeLa (adenocarcinoma, human)
Media: DMEM/F12+10%FBS adherent
1) Cells were seeded at 0.2×10^6 cells/well in 6-well plates.
2) 1.5 ml 0.5% FBS media was added to each well.
1) Made up all required solutions in 0.5% FBS media (control). Handling of […] for use in NF-κB experiments requires that sonication, commonly used to resuspend LPA, not be done; NF-κB may be activated by lipid peroxides created through vigorous frothing.
3) 1.5 ml appropriate treatments were added to each well.
5) After the specified time cell supernatants were collected into 1.5 ml eppendorf tubes, spun down at 14000 rpm for 5 minutes and stored at −20° C. for later ELISA determination.
D. Detection of Interleukin-8 (IL-8) using an IL-8 ELISA (Enzyme-Linked InimunoSorbent Assay).
1) The Quantikine Human IL-8 ImmunoAssay Kit was obtained from R&D Systems (Cat. D8050).
4) The assay procedure was followed as recommended in the kit for cell culture supernatant samples.
5) ELISA was performed on 50 μl samples of culture supernatant and duplicate samples were measured for each well. Each treatment was performed on triplicate wells.
6) Plates were read on UVmax kinetic microplate reader (Molecular Devices), set to 450 nm and correction set to 575 nm, using Wsoftmax software version 2.34.
Procedure #2 For HeLa Cells
1) Cells were seeded at 2.5×10^4 cells/well in 24-well plates.
2) 0.5 ml 0.5% FBS media was added to all wells not requiring PTX pre-treatment.
3) For wells requiring PTX; 0.5 ml 0.5% FBS media containing 50 ng/ml PTX (1 volume PTX (RBI Cat. P140): 1 volume DTT, incubate 37° C. for 30 minutes then dilute to 50 ng/ml) was added.
Follow Procedure #2 For HeLa Cells with the following exceptions:
Concentrations for LPC, LPE, LPG, LPS, sphingosine and SM used were 10, 50, 100, 1000, and 5000 nM. Concentrations for LPI, lyso-PAF and lysosulfatide used were 0.3 and 3 μM.
2) A 30 minute pre-treatment at 37° C./5%CO2 of 0.5 ml of suramin was done to all wells except control, any PTX and ET-18-OCH3 wells before step 3 of section C.

[5] = test system: HeLa cells; assay: Cytotoxicity (viable cell count) in HeLa cells; type: cell-based, human; settings: 40 μM
Excerpt: Follow Procedure #2 For HeLa Cells with the following exceptions: […]

[6] = test system: HL-60 cells; assay: IL-8 ELISA on HL-60 cells; type: cell-based, human; settings: 1, 6 or 24 hr, S1P or LPA up to 3 μM, TNF-α 10 ng/ml
Method: Procedure for HL-60 Cells:
Cells: HL-60 (promyelocytic, human) suspension cells
Media: RPMI 1640 medium with 2 mM L-glutamine adjusted to contain 4.5 g/L glucose, 10 mM HEPES, and 1.0 mM sodium pyruvate+10% FBS
1) Cells were plated at a density of 0.25×10^6 cells/ml.
2) Cell pellcts were resuspended in 0.5% FBS media at a density of approximately 1×10^6 cells/ml.
1) Made up all required solutions in 0.5% FBS media (control).
2) 1.4 ml appropriate treatments were added to each well of a 6-well plate.
5) 100 μl cell suspension was added to each well.
7) After the specified time cell supematants were collected into 1.5 ml eppendorf tubes, spun down at 14000 rpm for 5 minutes and stored at −20° C.
D. Refer to Procedure #1 For HeLa Cells (D).

[7] = test system: Human Umbilical Vein Endothelial Cells (HUVEC); assay: IL-8 ELISA on primary cultured HUVEC treated with lysolipids; type: cell-based; settings: 6 hr treatment
Method: Plating, Pretreatment and Treatment of HUVEC
Procedures were followed as detailed above in “Procedure #1 for HeLa Cells” with the following exceptions:
Cells were plated at 20,000 cells/well into 24-well plates. The next day, cells were serum-starved overnight in EBM medium (Clonetics) with 0.5% FBS, and then treated in EBM without FBS for 6 hr with the following lysolipids:
Supematants were collected and IL-8 levels were deternined using ELISA as described previously.

[8] = S1P 1 μM, 30 minute pre-treatment

Sequence of rat edg4 (P47752 whole entry): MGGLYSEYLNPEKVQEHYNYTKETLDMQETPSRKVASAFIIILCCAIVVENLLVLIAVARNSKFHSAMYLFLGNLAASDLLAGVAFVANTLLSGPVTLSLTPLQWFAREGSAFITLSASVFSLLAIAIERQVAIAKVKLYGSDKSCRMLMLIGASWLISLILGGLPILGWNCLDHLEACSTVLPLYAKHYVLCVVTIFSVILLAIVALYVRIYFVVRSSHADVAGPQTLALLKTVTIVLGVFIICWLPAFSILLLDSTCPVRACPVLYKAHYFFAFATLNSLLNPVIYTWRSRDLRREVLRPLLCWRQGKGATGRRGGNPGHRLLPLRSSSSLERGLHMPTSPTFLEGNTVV

## CCCCCCCCCCCCCCC[C@@H](O)[C@@H](N)COP(=O)(O)O [Dihydro-S1P, dihydrosphingosine 1-phosphate]
[1]
  EC50: 0.53 µM
  Agonist character at EDG-4: partial agonist
  Rank (EMax): 3
[1]; fold luciferase response, 6 hr
  Max. Fold: 2.84
[1]; relative efficacy, 6 hr
  EMax (Percent): 49.2%

## CCCCCCCCCCCCC/C=C/[C@@H](O)C(N)CO[C@@H]1O[C@H](CO)[C@@H](O)[C@H](O)[C@@H]1O (stereo partly drawn) [Glucospychosine, glucopsychosine]
[1]
  EC50: > 10 µM
  Agonist character at EDG-4: poor potency and efficacy
  Rank (EMax): 4
[2]
  Concentration at which cytotoxicity was seen: ^aCytotoxicity was seen at 10 μM or higher concentrations, preventing quantitative determination of EC50 or EMax
  Cytotoxicity (qualitative): cytotoxicity at higher concentrations

## CCCCCCCCCCCCCC(=O)O[C@@H]1[C@@H](C)[C@@]2(O)[C@@H](C=C(CO)C[C@]3(O)C(=O)C(C)=C[C@@H]23)[C@H]2C(C)(C)[C@]12OC(C)=O [TPA]
[3]
  NF-κB reporter induction (qualitative): strongly induced the NF-κB reporter

## CC(Cc1ccc(O)c(O)c1)C(C)Cc1ccc(O)c(O)c1 (stereo not drawn) [NDGA]
[4]; S1P 1 μM
  Relative potency of antioxidants in inhibiting IL-8 response to S1P: more potent than the hydrophilic NAC
[4]; S1P 1 μM, NDGA 40 μM
  Inhibition of IL-8 response to S1P at 40 μM: completely inhibited the IL-8 response to S1P
[4]; [8]
  Inhibition of IL-8 response to S1P by antioxidants: significantly inhibited
[5]
  Toxicity: some toxicity

## CCCCCCCCCCCCC/C=C/[C@@H](O)[C@@H](N)CO [sphingosine, Sphingosine]
[4]; 6 hours, 10-5000 nM or 0.3 and 3 μM
  IL-8 production (ligand selectivity): lack of response

## TNF-α
[6]
  IL-8 release: releasing IL-8

## CC(=O)N[C@@H](CS)C(=O)O [NAC]
[4]; [8]
  Inhibition of IL-8 response to S1P by antioxidants: significantly inhibited

## Cc1ccc(C(=O)Nc2ccc(S(=O)(=O)O)c3cc(S(=O)(=O)O)cc(S(=O)(=O)O)c23)cc1NC(=O)c1cccc(NC(=O)Nc2cccc(C(=O)Nc3cc(C(=O)Nc4ccc(S(=O)(=O)O)c5cc(S(=O)(=O)O)cc(S(=O)(=O)O)c45)ccc3C)c2)c1 [Suramin]
[4]; PTX 50 ng/ml or suramin 1 mg/ml
  Inhibition of the IL-8 response to edelfosine: potently inhibited
[4]; S1P 1 μM, suramin 1 mg/ml, 30 minute pre-treatment
  Effect of suramin on IL-8 response to S1P: extremely effective in blunting the IL-8 response to S1P

## CCCCCCCCCCCCCCCCCCOCC(COP(=O)([O-])OCC[N+](C)(C)C)OC (stereo not drawn) [Edelfosine]
[7]
  IL-8 response (qualitative): no response

## CCCCC/C=C\C/C=C\C/C=C\C/C=C\CCCC(=O)NCCO [anandamide]
[7]
  IL-8 response (qualitative): no response

## CCCCCCCCCCCCC/C=C/[C@@H](O)[C@@H](N)CO[C@@H]1O[C@H](CO)[C@H](O)[C@H](O)[C@H]1O [Psychosine]
[7]
  IL-8 response (qualitative): Marginal increases
[1]
  EC50: > 10 µM
  Agonist character at EDG-4: poor potency and efficacy
  Rank (EMax): 5
[2]; higher concentrations
  Cytotoxicity (qualitative): cytotoxicity at higher concentrations
